Earlier results as cited in US7723070B2, “Overexpression of aminoacyl-tRNA synthetases for efficient production of engineered proteins containing amino acid analogues” (California Institute of Technology, priority 2000, dated 2010).

How the values were obtained:
[1] = biological target: T1, methionyl tRNA synthetase (MetRS) (Escherichia coli, UniProt P00959); conditions: cited from earlier work
T1 sequence (P00959 1-548 limits assumed): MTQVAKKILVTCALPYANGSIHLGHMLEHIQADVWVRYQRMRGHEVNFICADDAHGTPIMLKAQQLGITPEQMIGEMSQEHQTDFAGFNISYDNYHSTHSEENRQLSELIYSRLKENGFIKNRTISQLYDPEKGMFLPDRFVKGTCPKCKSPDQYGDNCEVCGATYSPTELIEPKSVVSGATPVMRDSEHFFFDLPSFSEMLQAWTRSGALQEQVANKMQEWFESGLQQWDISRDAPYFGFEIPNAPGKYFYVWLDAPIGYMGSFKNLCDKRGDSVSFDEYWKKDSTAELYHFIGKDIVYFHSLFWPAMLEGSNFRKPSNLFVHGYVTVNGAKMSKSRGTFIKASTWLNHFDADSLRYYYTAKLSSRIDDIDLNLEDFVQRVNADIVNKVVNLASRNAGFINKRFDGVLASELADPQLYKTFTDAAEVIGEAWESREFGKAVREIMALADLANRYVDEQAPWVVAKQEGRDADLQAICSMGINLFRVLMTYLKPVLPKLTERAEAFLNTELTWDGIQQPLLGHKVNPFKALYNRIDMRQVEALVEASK

E. coli cells = conditions: antagonist for methionine; cited from earlier work

Compound | kcat, literature value [1] | Km ([1]; read-out: Km, previously reported, literature value) | effect on growth of E. coli cells (E. coli cells)
CSCC[C@H](N)C(=O)O [Analogue 1, L-methionine, reference compound] | 13.5 s⁻¹ | 24 ± 2 µM | 
C/C=C\CC(N)C(=O)O (racemic) [Analogue 4, cis-2-amino-4-hexenoic acid] |  |  | inhibiting the growth
